The text below walks through data of PubChem BioAssay (NCI).

Some test systems named below: COLO 205 colon; SW-620 colon; ACHN renal; OVCAR-5 ovarian; PC-3 prostate; SNB-75 CNS; MDA-MB-435; 786-0 renal; BT-549 breast; MALME-3M melanoma.
What all share (assay): NCI tumour cell line growth inhibition, 48 h

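Following 48 hours of exposure in 96-well plates, responses at five concentrations were used to interpolate endpoints linearly. GI50 marks 50% less growth. TGI: concentration producing complete growth inhibition.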 A value given as a limit tells only on which side of the number the result lay.

With `CCCOC(=O)c1c(C)n(C)c2scc[n+]12`, the GI50 in the test with COLO 205 colon is 17.8 µM; with SW-620 colon it was 67.4 µM; in the test on ACHN renal, more than 100 µM; in the test on OVCAR-5 ovarian, more than 100 µM; with PC-3 prostate, 54.1 µM; in the test with SNB-75 CNS, 50.5 µM. For the same compound, the GI50 with MDA-MB-435 was more than 100 µM; in the test with 786-0 renal it was 80.1 µM; in the test on BT-549 breast it was 35.9 µM; in the test with MALME-3M melanoma, more than 100 µM. Besides, the TGI in the test with COLO 205 colon is 46.8 µM; with SW-620 colon, more than 100 µM; in the test with ACHN renal it was more than 100 µM; in the test on OVCAR-5 ovarian, more than 100 µM; in the test on PC-3 prostate it was more than 100 µM; in the test on SNB-75 CNS, more than 100 µM. Further, the TGI with MDA-MB-435, with 786-0 renal, in the test with BT-549 breast and with MALME-3M melanoma was more than 100 µM in each case.
For `O=C(NC(=O)c1c(Cl)nc2sccn12)Nc1ccc(Cl)cc1`, the TGI was more than 100 µM in the test on COLO 205 colon; more than 100 µM with SW-620 colon; more than 100 µM in the test with ACHN renal; more than 100 µM in the test on OVCAR-5 ovarian; more than 56.2 µM with PC-3 prostate; 47.1 µM in the test on SNB-75 CNS. The TGI in the test on MDA-MB-435 was more than 100 µM; in the test with 786-0 renal, more than 90.1 µM; in the test with BT-549 breast it was more than 81.9 µM; with MALME-3M melanoma it was more than 100 µM.
For the compound `Cc1ccc(-c2nc(/C=N/Nc3cc(C)nc4ccc(Cl)cc34)c(C)o2)cc1`, the GI50 with COLO 205 colon is 1.76 µM; with SW-620 colon, 0.485 µM; with ACHN renal it was 1.68 µM; in the test on OVCAR-5 ovarian it was 1.72 µM; with PC-3 prostate it was 2.26 µM; in the test with SNB-75 CNS, 1.55 µM. Besides, the GI50 in the test on MDA-MB-435 was 1.69 µM; in the test on 786-0 renal, 1.42 µM; in the test with BT-549 breast, 1.72 µM; in the test on MALME-3M melanoma it was 1.94 µM. Besides, the TGI stood at 3.57 µM with COLO 205 colon; 2.07 µM with SW-620 colon; 3.05 µM with ACHN renal; 3.39 µM in the test on OVCAR-5 ovarian; 5.65 µM in the test with PC-3 prostate; 3.2 µM with SNB-75 CNS. The TGI in the test with MDA-MB-435 was found to be 3.25 µM; in the test with 786-0 renal, 2.76 µM; with BT-549 breast it was 3.27 µM; with MALME-3M melanoma, 3.67 µM.
With `Cn1cc(C2=C(c3c[nH]c4ccccc34)C(=O)NC2=O)c2ccccc21`, the GI50 with COLO 205 colon was 1.25 µM; in the test with SW-620 colon, more than 4.92 µM; with ACHN renal, 1.73 µM; with OVCAR-5 ovarian, more than 25 µM; in the test with PC-3 prostate it was 3.91 µM; in the test with SNB-75 CNS it was 0.071 µM. In addition, the GI50 in the test with MDA-MB-435 is 0.937 µM; with 786-0 renal it was 0.446 µM; in the test on BT-549 breast it was 0.314 µM; in the test with MALME-3M melanoma it was 0.143 µM. For the same compound, the TGI in the test with COLO 205 colon is more than 25 µM; in the test with SW-620 colon, more than 25 µM; in the test with ACHN renal, more than 25 µM; in the test on OVCAR-5 ovarian, more than 25 µM; in the test with PC-3 prostate it was more than 25 µM; in the test with SNB-75 CNS, more than 7.62 µM. Further, the TGI in the test with MDA-MB-435 was more than 25 µM; with 786-0 renal it was more than 25 µM; in the test with BT-549 breast, more than 7.28 µM; with MALME-3M melanoma, more than 25 µM.
Regarding `O=C(/C=C/C=C/c1ccccc1)c1ccco1`, the GI50 is 17.9 µM in the test on COLO 205 colon; 13.4 µM in the test with SW-620 colon; 16.9 µM with ACHN renal; 18.4 µM with OVCAR-5 ovarian; 16.4 µM in the test on PC-3 prostate; 18 µM in the test on SNB-75 CNS. For the same compound, the GI50 with MDA-MB-435 is 13.1 µM; with 786-0 renal, 15.2 µM; with BT-549 breast, 17.2 µM; with MALME-3M melanoma, 12.6 µM. The TGI in the test on COLO 205 colon was 31.7 µM; in the test on SW-620 colon, 28.6 µM; in the test with ACHN renal it was 33.5 µM; with OVCAR-5 ovarian, 33.3 µM; with PC-3 prostate, 53 µM; in the test with SNB-75 CNS, 72.5 µM. For the same compound, the TGI with MDA-MB-435 came out at 29.2 µM; in the test on 786-0 renal, 32.5 µM; in the test on BT-549 breast it was 40.7 µM; with MALME-3M melanoma it was 28.6 µM.
In the case of `O=C(O)/C(Cc1ccnc2ccccc12)=N\O`, the TGI in the test with COLO 205 colon, with SW-620 colon, with ACHN renal, in the test on OVCAR-5 ovarian, in the test on PC-3 prostate and in the test with SNB-75 CNS was more than 100 µM in each case. Further, the TGI in the test with MDA-MB-435, in the test on 786-0 renal, in the test on BT-549 breast and with MALME-3M melanoma was more than 100 µM throughout.
On to `CCCc1cc(=O)n2c(C(=O)Nc3ccc(F)cc3)c(C(=O)Nc3ccc(F)cc3)sc2n1`, for which the GI50 was 160 µM in the test on COLO 205 colon; 56.5 µM in the test on SW-620 colon; 17.3 µM in the test with ACHN renal; more than 160 µM in the test with OVCAR-5 ovarian; 30.1 µM in the test on PC-3 prostate; 3.48 µM with SNB-75 CNS. Besides, the GI50 is more than 160 µM in the test with MDA-MB-435, 2.64 µM with 786-0 renal, more than 160 µM in the test on BT-549 breast and 36 µM with MALME-3M melanoma. Moreover, the TGI in the test with COLO 205 colon was more than 160 µM; in the test with SW-620 colon, more than 160 µM; with ACHN renal, 57.7 µM; in the test on OVCAR-5 ovarian, more than 160 µM; in the test with PC-3 prostate, more than 160 µM; in the test on SNB-75 CNS it was 13.8 µM. Moreover, the TGI in the test on MDA-MB-435 was more than 160 µM; in the test with 786-0 renal it was 13.3 µM; in the test on BT-549 breast it was more than 160 µM; with MALME-3M melanoma, 91.3 µM.
Consider `O=C1CSC(c2ccccc2Cl)N1c1nnc(Cn2cnnc2)o1` (stereo not given), for which the GI50 in the test on COLO 205 colon was 10.5 µM; with SW-620 colon, 4.73 µM; with ACHN renal, 14.3 µM; with OVCAR-5 ovarian, 20.4 µM; in the test on PC-3 prostate, 11.6 µM; in the test with SNB-75 CNS, 3.19 µM. The GI50 in the test with MDA-MB-435 was 2.2 µM; in the test on 786-0 renal, 13.8 µM; in the test with BT-549 breast, 6.31 µM; in the test on MALME-3M melanoma, 6.84 µM. For the same compound, the TGI in the test on COLO 205 colon was 23.2 µM; in the test on SW-620 colon, 27.5 µM; in the test on ACHN renal, 48.6 µM; in the test on OVCAR-5 ovarian, 44.3 µM; in the test with PC-3 prostate, more than 100 µM; in the test on SNB-75 CNS it was 41.8 µM. In addition, the TGI in the test with MDA-MB-435 turned out to be 5.96 µM; in the test with 786-0 renal it was 33.4 µM; with BT-549 breast it was 32.5 µM; with MALME-3M melanoma, 30.6 µM.
